A word on the Ki: it is a dissociation constant, usually derived from enzyme kinetics or from competition with a known ligand.

This is an account of results in patent US8580811B2 (Ligand Pharmaceuticals Incorporated, priority 2005, dated 2013).

The test has as its target T1, human AR (Homo sapiens, UniProt P10275).
T1 construct: expressed in transfected cells; host or cells: COS-1 cells
T1 sequence (P10275 1-920): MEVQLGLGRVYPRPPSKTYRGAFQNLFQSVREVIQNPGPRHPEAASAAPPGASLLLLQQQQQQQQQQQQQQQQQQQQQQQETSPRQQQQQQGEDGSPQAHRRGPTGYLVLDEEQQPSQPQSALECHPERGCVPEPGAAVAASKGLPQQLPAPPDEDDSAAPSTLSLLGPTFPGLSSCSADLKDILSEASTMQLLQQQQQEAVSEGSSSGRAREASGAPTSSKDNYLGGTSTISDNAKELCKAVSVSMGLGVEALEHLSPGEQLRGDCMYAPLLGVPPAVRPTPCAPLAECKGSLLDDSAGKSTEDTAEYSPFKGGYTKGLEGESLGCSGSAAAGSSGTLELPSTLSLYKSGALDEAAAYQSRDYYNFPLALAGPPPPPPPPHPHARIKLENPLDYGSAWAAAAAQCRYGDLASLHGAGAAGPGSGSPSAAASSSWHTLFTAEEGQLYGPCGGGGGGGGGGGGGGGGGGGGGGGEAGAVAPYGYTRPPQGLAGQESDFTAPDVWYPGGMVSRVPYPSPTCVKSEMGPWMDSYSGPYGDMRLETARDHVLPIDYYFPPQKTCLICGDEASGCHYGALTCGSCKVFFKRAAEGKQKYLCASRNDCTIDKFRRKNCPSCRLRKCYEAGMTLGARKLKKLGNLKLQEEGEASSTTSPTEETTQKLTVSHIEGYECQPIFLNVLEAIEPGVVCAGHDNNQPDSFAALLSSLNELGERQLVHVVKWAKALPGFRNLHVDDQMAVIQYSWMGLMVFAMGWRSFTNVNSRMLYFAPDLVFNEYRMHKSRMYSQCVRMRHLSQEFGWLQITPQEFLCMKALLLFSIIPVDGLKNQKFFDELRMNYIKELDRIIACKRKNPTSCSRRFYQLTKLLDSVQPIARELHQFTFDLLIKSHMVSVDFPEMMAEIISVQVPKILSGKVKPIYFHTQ
Briefly: IR Binding Assay: whole cell competitive binding of test compounds against 3H-DHT in COS-1 cells transfected with pRShAR. As to the method:
For the whole cell binding assay, COS-1 cells in 96-well microtiter plates including DMEM-10% FBS were transfected as described above with the following plasmid DNA: pRShAR (2 ng/well), pRS-β-Gal (50 ng/well) and pGEM (48 ng/well). Six hours after transfection, media was removed, the cells were washed with PBS and fresh media was added. The next day, the media was changed to DMEM-serum free to remove any endogenous ligand that might be complexed with the receptor in the cells.
After 24 hours in serum-free media, either a saturation analysis to determine the Kd for tritiated dihydrotestosterone (^3H-DHT) on human AR or a competitive binding assay to evaluate the ability of test compounds to compete with ^3H-DHT for AR was performed. […] For the competitive binding assay, media including 1 nM ^3H-DHT and test compounds in concentrations ranging from 10^−10 to 10^−6 M were added to the cells. Three replicates were used for each sample. After three hours at 37° C., an aliquot of the total binding media at each concentration of ^3H-DHT was removed to estimate the amount of free ^3H-DHT. The remaining media was removed, the cells were washed three times with PBS to remove unbound ligand, and cells were lysed with a Triton X-100-based buffer. The lysates were assayed for amount of bound ^3H-DHT and β-Gal activity using a scintillation counter or spectrophotometer, respectively.
For the saturation analyses, the difference between the total binding and the nonspecific binding, normalized by the β-Gal rate, was defined as specific binding. The specific binding was evaluated by Scatchard analysis to determine the Kd for ^3H-DHT. See e.g., D. Rodbard, “Mathematics and statistics of ligand assays: an illustrated guide” In: J. Langon and J. J. Clapp, eds., Ligand Assay, Masson Publishing U.S.A., Inc., New York, pp. 45-99, (1981), the disclosure of which is herein incorporated by reference. For the competition studies, the data was plotted as the amount of ^3H-DHT (% of control in the absence of test compound) remaining over the range of the dose-response curve for a given compound. […] The Ki values were determined by application of the Cheng-Prusoff equation to the IC50 values, where:
[formula] After correcting for non-specific binding, IC50 values were determined. […] The IC50 value was determined graphically from a log-logit plot of the data. The Ki values were determined by application of the Cheng-Prusoff equation to the IC50 values, the labeled ligand concentration and the Kd of the labeled ligand. see e.g., Cheng, Y. C. and Prusoff, W. H. Biochem. Pharmacol. 22:3099 (1973).

Like-named read-outs stand apart in the source and are kept apart here. Bounds are passed on as bounds.

Molecule `CC1c2c(ccc3[nH]c(=O)cc(C(F)(F)F)c23)N(CCC(F)(F)F)C1C` (racemic) [Compound 174, (±)-1,2-Dimethyl-9-trifluoromethyl-3-(3,3,3-trifluoropropyl)-1,2,3,6-tetrahydro-pyrrolo[3,2-f]quinolin-7-one] yielded a Ki below 5 nM.

For `CC1c2c(ccc3[nH]c(=O)cc(C(F)(F)F)c23)N(CC(F)(F)Cl)C1C` (racemic) [Compound 175, (±)-3-(2-Chloro-2,2-difluoroethyl)-1,2-dimethyl-9-trifluoromethyl-1,2,3,6-tetrahydro-pyrrolo[3,2-f]quinolin-7-one], the Ki is below 5 nM.

With `CCC1C(C)c2c(ccc3[nH]c(=O)cc(Cl)c23)N1CC(F)(F)Cl` (racemic) [Compound 176, (±)-9-Chloro-3-(2-Chloro-2,2-difluoroethyl)-2-ethyl-1-methyl-1,2,3,6-tetrahydro-pyrrolo[3,2-f]quinolin-7-one], the Ki is below 5 nM.

Molecule `CCC1C(C)c2c(ccc3[nH]c(=O)cc(Cl)c23)N1CC(F)(F)C(F)(F)F` (racemic) [Compound 177, (±)-9-Chloro-2-ethyl-1-methyl-3-(2,2,3,3,3-pentafluoropropyl)-1,2,3,6-tetrahydro-pyrrolo[3,2-f]quinolin-7-one] came in with a Ki below 5 nM.

`CCC1C(C)c2c(ccc3[nH]c(=O)cc(C(F)(F)F)c23)N1CC(F)(F)Cl` (racemic) [Compound 178, (±)-3-(2-Chloro-2,2-difluoroethyl)-2-ethyl-1-methyl-9-trifluoromethyl-1,2,3,6-tetrahydro-pyrrolo[3,2-f]quinolin-7-one] had a Ki below 5 nM.

For `CCC1C(C)c2c(ccc3[nH]c(=O)cc(C(F)(F)F)c23)N1CC(F)(F)C(F)(F)F` (racemic) [Compound 179, (±)-2-Ethyl-1-methyl-3-(2,2,3,3,3-pentafluoropropyl)-9-trifluoromethyl-1,2,3,6-tetrahydro-pyrrolo[3,2-f]quinolin-7-one], the Ki was below 5 nM.

As for `CCC1C(C)c2c(ccc3[nH]c(=O)cc(C(F)(F)F)c23)N1CCC(F)(F)F` (racemic) [Compound 180, (±)-2-Ethyl-1-methyl-9-trifluoromethyl-3-(3,3,3-trifluoropropyl)-1,2,3,6-tetrahydro-pyrrolo[3,2-f]quinolin-7-one], the Ki is below 5 nM.

On to `CCC1C(C)c2c(ccc3[nH]c(=O)cc(C(F)(F)F)c23)N1CCCC(F)(F)F` (racemic) [Compound 181, (±)-2-Ethyl-1-methyl-3-(4,4,4-trifluorobutyl)-9-trifluoromethyl-1,2,3,6-tetrahydro-pyrrolo[3,2-f]quinolin-7-one], for which the Ki was 5 to 10 nM.

`CC1c2c(ccc3[nH]c(=O)cc(C(F)(F)F)c23)N(CCCC(F)(F)F)C1C` (racemic) [Compound 182, (±)-1,2-Dimethyl-3-(4,4,4-trifluorobutyl)-9-trifluoromethyl-1,2,3,6-tetrahydro-pyrrolo[3,2-f]quinolin-7-one] displayed a Ki below 5 nM.

`Cc1c(C)n(CC(O)C(F)(F)F)c2ccc3[nH]c(=O)cc(Cl)c3c12` (racemic) [Compound 231, (±)-9-Chloro-1,2-dimethyl-3-(3,3,3-trifluoro-2-hydroxy-propyl)-3,6-dihydro-pyrrolo[3,2-f]-quinolin-7-one] had a Ki below 5 nM.

Consider `CCc1c(C)c2c3c(Cl)cc(=O)[nH]c3ccc2n1CC(O)C(F)(F)F` (racemic) [Compound 232, (±)-9-Chloro-2-ethyl-1-methyl-3-(3,3,3-trifluoro-2-hydroxy-propyl)-3,6-dihydro-pyrrolo[3,2-f]quinolin-7-one], for which the Ki was below 5 nM.

Molecule `Cc1c(C(F)(F)F)n(CC(O)C(F)(F)F)c2ccc3[nH]c(=O)cc(Cl)c3c12` (racemic) [Compound 233, (±)-9-Chloro-1-methyl-3-(3,3,3-trifluoro-2-hydroxypropyl)-2-trifluoromethyl-3,6-dihydropyrrolo[3,2-f]quinolin-7-one] returned a Ki below 5 nM.

`Cc1c(C)n(CC(O)C(F)(F)F)c2ccc3[nH]c(=O)cc(C(F)(F)F)c3c12` (racemic) [Compound 243, (±)-1,2-Dimethyl-3-(3,3,3-trifluoro-2-hydroxy-propyl)-9-trifluoromethyl-3,6-dihydro-pyrrolo[3,2-f]-quinolin-7-one] returned a Ki below 5 nM.

Regarding `O=c1cc(C(F)(F)F)c2c(ccc3c2c2c(n3CC(O)C(F)(F)F)CCC2)[nH]1` (racemic) [Compound 246, (±)-3-(3,3,3-Trifluoro-2-hydroxy-propyl)-9-trifluoromethyl-1,2-trimethylene-3,6-dihydro-pyrrolo[3,2-f]quinolin-7-one], the Ki was 5 to 10 nM.

For `CCc1c(C)c2c3c(C(F)(F)F)cc(=O)[nH]c3ccc2n1CC(O)C(F)(F)F` (racemic) [Compound 247, (±)-2-Ethyl-1-methyl-3-(3,3,3-Trifluoro-2-hydroxy-propyl)-9-trifluoromethyl-3,6-dihydro-pyrrolo[3,2-f]quinolin-7-one], the Ki is below 5 nM.

As for `Cc1c(C)n(CC(O)C(F)(F)F)c2ccc3[nH]c(=O)cc(Cl)c3c12` (racemic) [Compound 279, rac-9-Chloro-1,2-dimethyl-3-(3,3,3-trifluoro-2-hydroxy-propyl)-3,6-dihydro-pyrrolo[3,2-f]-quinolin-7-one], where the note is “competition with 1 nM 3H-DHT, transfected COS-1 cells, 3 h at 37° C., Cheng-Prusoff from IC50”, the Ki is below 5 nM.

In the case of `Cc1[nH]c2ccc3[nH]c(=O)cc(Cl)c3c2c1C` [Compound 105, 9-Chloro-1,2-dimethyl-3,6-dihydro-pyrrolo[3,2-f]quinolin-7-one], the Ki was below 5 nM.

`CCc1[nH]c2ccc3[nH]c(=O)cc(Cl)c3c2c1C` [Compound 106, 9-Chloro-2-ethyl-1-methyl-3,6-dihydro-pyrrolo[3,2-f]quinolin-7-one] showed a Ki of 5 to 10 nM.

The molecule `O=c1cc(Cl)c2c(ccc3[nH]c4c(c32)CCC4)[nH]1` [Compound 107, 9-Chloro-1,2-trimethylene-3,6-dihydro-pyrrolo[3,2-f]quinolin-7-one] yielded a Ki above 10 nM.

`Cc1c(C(F)(F)F)[nH]c2ccc3[nH]c(=O)cc(Cl)c3c12` [Compound 108, 9-Chloro-1-methyl-2-trifluoromethyl-3,6-dihydro-pyrrolo[3,2-f]quinolin-7-one] showed a Ki below 5 nM.

The molecule `CCc1c(C)[nH]c2ccc3[nH]c(=O)cc(Cl)c3c12` [Compound 109, 9-Chloro-2-methyl-1-ethyl-3,6-dihydro-pyrrolo[3,2-f]quinolin-7-one] returned a Ki above 10 nM.

Molecule `Cc1c(-c2ccccc2)[nH]c2ccc3[nH]c(=O)cc(Cl)c3c12` [Compound 110, 9-Chloro-1-methyl-2-phenyl-3,6-dihydro-pyrrolo[3,2-f]quinolin-7-one] registered a Ki below 5 nM.

As to `CCOC(=O)c1[nH]c2ccc3[nH]c(=O)cc(Cl)c3c2c1C` [Compound 111, 9-Chloro-1-methyl-7-oxo-6,7-dihydro-3H-pyrrolo[3,2-f]quinoline-2-carboxylic acid ethyl ester], where the note is “competition with 1 nM 3H-DHT, transfected COS-1 cells, 3 h at 37° C., Cheng-Prusoff from IC50, read-out: Ki”, the Ki is above 10 nM.

`Cc1cc2c(ccc3[nH]c(=O)cc(Cl)c32)[nH]1` [Compound 112, 9-Chloro-2-methyl-3,6-dihydro-pyrrolo[3,2-f]quinolin-7-one]: the Ki was above 10 nM.
